These results are taken from ChEMBL document CHEMBL4715770, “Inhibition of Low Molecular Weight Protein Tyrosine Phosphatase by an Induced-Fit Mechanism” (J Med Chem, 2016).

Experiment [1] has as its target T1, Dual specificity protein phosphatase 23 (Homo sapiens, UniProt Q9BVJ7).
T1 sequence (Q9BVJ7 whole entry): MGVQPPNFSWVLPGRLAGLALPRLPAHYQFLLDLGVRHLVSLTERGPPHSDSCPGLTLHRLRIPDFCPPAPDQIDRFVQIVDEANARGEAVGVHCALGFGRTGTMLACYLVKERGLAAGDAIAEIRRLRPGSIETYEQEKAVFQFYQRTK
As to the kind of experiment: Inhibition of His-tagged VHZ (unknown origin) expressed in Escherichia coli BL21 cells using para-nitrophenyl phosphate as substrate incubated for 5 to 10 mins by microplate reader based spectrophotometric analysis.

For experiment [2], the target named is Receptor-type tyrosine-protein phosphatase alpha (Homo sapiens, UniProt P18433). As to the kind of experiment: Inhibition of His-tagged PTPalpha (unknown origin) expressed in Escherichia coli BL21 cells using para-nitrophenyl phosphate as substrate incubated for 5 to 10 mins by microplate reader based spectrophotometric analysis.
Sequence of Receptor-type tyrosine-protein phosphatase alpha (P18433 whole entry): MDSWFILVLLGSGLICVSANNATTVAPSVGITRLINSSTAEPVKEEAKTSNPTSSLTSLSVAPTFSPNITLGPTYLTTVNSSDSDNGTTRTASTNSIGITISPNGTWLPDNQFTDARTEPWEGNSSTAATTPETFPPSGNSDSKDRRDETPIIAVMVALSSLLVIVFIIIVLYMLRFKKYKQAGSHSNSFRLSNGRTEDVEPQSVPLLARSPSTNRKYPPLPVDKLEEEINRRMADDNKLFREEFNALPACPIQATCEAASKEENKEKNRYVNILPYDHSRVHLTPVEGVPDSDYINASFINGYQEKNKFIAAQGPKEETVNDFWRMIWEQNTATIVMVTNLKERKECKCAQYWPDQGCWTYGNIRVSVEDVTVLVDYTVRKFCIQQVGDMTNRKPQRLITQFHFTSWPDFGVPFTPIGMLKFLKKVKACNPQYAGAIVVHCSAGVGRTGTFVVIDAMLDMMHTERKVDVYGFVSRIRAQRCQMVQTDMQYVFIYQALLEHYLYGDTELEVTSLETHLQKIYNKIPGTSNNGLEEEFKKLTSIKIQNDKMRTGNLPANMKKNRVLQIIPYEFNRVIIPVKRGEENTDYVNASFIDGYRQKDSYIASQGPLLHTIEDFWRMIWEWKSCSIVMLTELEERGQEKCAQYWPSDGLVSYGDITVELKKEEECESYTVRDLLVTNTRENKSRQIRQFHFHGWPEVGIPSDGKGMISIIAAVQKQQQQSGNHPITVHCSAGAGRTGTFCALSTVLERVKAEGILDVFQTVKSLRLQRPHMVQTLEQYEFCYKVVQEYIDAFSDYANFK
For experiment [3], the target named is T2, Tyrosine-protein phosphatase non-receptor type 7 (Homo sapiens, UniProt P35236).
T2 sequence (P35236 whole entry): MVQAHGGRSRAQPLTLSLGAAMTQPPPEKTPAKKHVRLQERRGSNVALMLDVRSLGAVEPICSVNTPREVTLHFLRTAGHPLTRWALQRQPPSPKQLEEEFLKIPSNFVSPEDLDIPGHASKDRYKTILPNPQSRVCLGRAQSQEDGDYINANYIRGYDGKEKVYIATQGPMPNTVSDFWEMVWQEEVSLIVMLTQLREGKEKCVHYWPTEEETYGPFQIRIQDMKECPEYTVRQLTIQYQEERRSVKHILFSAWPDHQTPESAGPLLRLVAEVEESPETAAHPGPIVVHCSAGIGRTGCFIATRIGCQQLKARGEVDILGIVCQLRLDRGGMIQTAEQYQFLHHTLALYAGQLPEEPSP
As to the kind of experiment: Inhibition of His-tagged HePTP (unknown origin) expressed in Escherichia coli BL21 cells using para-nitrophenyl phosphate as substrate incubated for 5 to 10 mins by microplate reader based spectrophotometric analysis.

Experiment [4] concerns the target Tyrosine-protein phosphatase non-receptor type 6 (Homo sapiens, UniProt P29350). As to the kind of experiment: Inhibition of His-tagged SHP1 (unknown origin) expressed in Escherichia coli BL21 cells using para-nitrophenyl phosphate as substrate incubated for 5 to 10 mins by microplate reader based spectrophotometric analysis.
In experiment [5] the target is Receptor-type tyrosine-protein phosphatase mu (Homo sapiens, UniProt P28827). As to the kind of experiment: Inhibition of His-tagged PTPmu (unknown origin) expressed in Escherichia coli BL21 cells using para-nitrophenyl phosphate as substrate incubated for 5 to 10 mins by microplate reader based spectrophotometric analysis.
Sequence of Receptor-type tyrosine-protein phosphatase mu (P28827 whole entry): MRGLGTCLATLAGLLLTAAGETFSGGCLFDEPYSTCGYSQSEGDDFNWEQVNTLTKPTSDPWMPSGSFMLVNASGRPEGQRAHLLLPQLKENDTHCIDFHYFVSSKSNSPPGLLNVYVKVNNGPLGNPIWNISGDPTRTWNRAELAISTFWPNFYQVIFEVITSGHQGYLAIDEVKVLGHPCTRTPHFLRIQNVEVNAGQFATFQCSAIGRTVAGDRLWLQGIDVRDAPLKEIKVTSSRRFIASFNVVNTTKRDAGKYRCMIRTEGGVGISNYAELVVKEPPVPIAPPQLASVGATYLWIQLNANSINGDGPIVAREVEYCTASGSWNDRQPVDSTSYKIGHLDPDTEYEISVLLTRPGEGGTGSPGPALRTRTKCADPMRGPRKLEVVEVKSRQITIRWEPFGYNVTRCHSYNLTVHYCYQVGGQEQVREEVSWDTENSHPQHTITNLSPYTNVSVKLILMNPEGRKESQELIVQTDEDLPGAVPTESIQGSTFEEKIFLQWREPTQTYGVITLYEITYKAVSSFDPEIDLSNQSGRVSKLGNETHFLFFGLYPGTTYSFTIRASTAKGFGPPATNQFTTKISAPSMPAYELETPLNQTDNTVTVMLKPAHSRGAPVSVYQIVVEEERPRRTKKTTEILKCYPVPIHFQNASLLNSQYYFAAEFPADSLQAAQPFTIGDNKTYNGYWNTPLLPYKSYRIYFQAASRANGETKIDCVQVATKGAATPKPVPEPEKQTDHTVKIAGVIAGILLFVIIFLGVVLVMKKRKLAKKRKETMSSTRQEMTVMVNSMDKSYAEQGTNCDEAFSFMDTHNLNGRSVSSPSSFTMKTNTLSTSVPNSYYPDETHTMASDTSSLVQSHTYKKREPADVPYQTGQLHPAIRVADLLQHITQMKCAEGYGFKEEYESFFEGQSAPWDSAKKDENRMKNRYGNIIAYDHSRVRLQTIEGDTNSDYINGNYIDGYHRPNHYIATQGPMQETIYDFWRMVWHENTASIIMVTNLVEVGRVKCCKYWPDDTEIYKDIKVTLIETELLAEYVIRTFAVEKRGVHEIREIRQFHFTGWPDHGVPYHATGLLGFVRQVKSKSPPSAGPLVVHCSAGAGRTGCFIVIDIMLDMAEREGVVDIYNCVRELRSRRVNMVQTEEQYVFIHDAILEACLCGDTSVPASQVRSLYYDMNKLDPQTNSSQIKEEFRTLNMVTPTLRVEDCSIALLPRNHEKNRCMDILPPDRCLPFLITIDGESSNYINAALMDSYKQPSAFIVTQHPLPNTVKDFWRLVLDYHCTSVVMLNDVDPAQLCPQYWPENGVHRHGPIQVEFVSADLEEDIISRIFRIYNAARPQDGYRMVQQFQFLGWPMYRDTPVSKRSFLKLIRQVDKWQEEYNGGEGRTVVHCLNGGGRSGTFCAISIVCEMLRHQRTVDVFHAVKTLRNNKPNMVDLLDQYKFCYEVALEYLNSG
Experiment [6] concerns the target T3, Serine/threonine-protein phosphatase 5 (Homo sapiens, UniProt P53041).
T3 sequence (P53041 whole entry): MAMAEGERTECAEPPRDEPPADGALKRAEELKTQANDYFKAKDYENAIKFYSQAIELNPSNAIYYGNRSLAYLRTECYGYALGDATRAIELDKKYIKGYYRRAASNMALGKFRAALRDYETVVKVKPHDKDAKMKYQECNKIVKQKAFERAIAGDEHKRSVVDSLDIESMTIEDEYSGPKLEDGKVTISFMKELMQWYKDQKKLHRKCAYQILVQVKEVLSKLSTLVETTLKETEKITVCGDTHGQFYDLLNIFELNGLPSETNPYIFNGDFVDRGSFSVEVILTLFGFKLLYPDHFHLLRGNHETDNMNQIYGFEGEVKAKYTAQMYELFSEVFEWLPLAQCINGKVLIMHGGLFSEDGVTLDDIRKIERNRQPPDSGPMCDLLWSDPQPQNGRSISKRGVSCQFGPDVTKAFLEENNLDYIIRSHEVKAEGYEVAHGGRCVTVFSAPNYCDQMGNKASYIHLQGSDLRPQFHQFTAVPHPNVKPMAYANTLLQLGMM
As to the kind of experiment: Inhibition of His-tagged PP5 (unknown origin) expressed in Escherichia coli BL21 cells using para-nitrophenyl phosphate as substrate incubated for 5 to 10 mins by microplate reader based spectrophotometric analysis.

The target in experiment [7] is Dual specificity protein phosphatase 3 (Homo sapiens, UniProt P51452). Put plainly: Inhibition of His-tagged VHR (unknown origin) expressed in Escherichia coli BL21 cells using para-nitrophenyl phosphate as substrate incubated for 5 to 10 mins by microplate reader based spectrophotometric analysis.
Sequence of Dual specificity protein phosphatase 3 (P51452 whole entry, the tested form may be a part): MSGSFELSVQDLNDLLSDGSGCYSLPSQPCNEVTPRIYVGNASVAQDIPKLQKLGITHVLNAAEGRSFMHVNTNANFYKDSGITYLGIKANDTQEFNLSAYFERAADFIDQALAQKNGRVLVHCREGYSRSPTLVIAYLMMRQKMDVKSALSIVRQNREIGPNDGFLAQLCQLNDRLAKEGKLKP
The target of experiment [8] is T4, RNA polymerase II subunit A C-terminal domain phosphatase SSU72 (Homo sapiens, UniProt Q9NP77).
T4 sequence (Q9NP77 whole entry): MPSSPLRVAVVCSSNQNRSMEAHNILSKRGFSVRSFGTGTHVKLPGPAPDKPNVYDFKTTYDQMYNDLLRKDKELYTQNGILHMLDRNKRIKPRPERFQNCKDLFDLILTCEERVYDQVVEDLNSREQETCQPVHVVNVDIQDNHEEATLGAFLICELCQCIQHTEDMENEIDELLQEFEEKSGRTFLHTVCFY
As to the kind of experiment: Inhibition of His-tagged SSu72 (unknown origin) expressed in Escherichia coli BL21 cells using para-nitrophenyl phosphate as substrate incubated for 5 to 10 mins by microplate reader based spectrophotometric analysis.

Experiment [9] has as its target T5, Tyrosine-protein phosphatase non-receptor type 11 (Homo sapiens, UniProt Q06124).
T5 sequence (Q06124 whole entry): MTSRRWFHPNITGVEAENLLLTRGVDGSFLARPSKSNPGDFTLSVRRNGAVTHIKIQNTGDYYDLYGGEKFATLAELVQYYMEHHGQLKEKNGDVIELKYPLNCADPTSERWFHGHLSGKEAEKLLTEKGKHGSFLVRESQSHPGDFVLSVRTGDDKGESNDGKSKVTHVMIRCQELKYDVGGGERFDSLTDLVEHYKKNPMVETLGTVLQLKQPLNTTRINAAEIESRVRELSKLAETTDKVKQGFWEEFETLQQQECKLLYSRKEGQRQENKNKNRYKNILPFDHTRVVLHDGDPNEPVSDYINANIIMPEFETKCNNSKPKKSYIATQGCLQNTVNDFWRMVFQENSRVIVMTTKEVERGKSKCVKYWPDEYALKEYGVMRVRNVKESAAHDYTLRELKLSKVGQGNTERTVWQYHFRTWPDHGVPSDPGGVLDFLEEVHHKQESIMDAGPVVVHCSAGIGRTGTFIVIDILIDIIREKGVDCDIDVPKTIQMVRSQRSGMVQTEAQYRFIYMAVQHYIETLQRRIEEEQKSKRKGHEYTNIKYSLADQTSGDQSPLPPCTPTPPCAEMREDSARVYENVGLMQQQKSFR
As to the kind of experiment: Inhibition of His-tagged SHP2 (unknown origin) expressed in Escherichia coli BL21 cells using para-nitrophenyl phosphate as substrate incubated for 5 to 10 mins by microplate reader based spectrophotometric analysis.

Sequence of Tyrosine-protein phosphatase non-receptor type 6 (P29350 whole entry): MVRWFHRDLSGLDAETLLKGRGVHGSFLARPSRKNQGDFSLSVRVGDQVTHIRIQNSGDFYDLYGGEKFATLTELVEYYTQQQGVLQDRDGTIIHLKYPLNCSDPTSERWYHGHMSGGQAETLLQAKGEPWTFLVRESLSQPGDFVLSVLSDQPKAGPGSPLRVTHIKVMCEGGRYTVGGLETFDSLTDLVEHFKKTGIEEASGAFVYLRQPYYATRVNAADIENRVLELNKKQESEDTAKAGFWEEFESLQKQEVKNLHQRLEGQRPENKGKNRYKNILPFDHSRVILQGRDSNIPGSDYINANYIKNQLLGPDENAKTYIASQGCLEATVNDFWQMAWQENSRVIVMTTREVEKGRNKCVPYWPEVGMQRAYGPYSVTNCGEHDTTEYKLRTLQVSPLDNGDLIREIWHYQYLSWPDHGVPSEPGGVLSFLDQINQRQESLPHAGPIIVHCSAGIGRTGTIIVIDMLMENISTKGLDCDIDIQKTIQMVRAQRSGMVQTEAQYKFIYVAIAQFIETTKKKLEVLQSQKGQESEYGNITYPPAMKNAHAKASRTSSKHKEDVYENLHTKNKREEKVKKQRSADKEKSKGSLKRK

As a reminder, the IC50 is the concentration that inhibits the measured activity by half. A high value points to a need for much substance. For `O=C(Nc1ccc(OCc2ccccc2)c(Cl)c1)C(c1ccccc1)S(=O)(=O)O` (configuration not stated), the IC50 in [1], in experiment [2], in [3], in [4], in experiment [5] and in experiment [6] was over 200 µM in each case.
As for `O=C(Nc1nc2ccc([N+](=O)[O-])cc2s1)C(c1ccccc1)S(=O)(=O)O` (configuration not stated), the IC50 in [1], in experiment [2], in experiment [3], in experiment [4], in experiment [7] and in [5] was over 100 µM in each case. The IC50 in [6], in [8] and in [9] was over 100 µM in each case.
Consider `O=C(Nc1cc(C(F)(F)F)cc(C(F)(F)F)c1)C(c1ccccc1)S(=O)(=O)O` (configuration not stated), for which the half-maximal inhibitory concentration (IC50) in experiment [1] is over 200 µM; in experiment [2], over 200 µM; in [3] it was 94 µM; in experiment [4] it was over 200 µM; in experiment [7] it was over 200 µM; in experiment [5] it was over 200 µM. Moreover, the figures for the IC50 in experiment [6], in [8] and in [9] were over 200 µM, 83 µM and over 200 µM, respectively.
Consider `Cc1c(Br)cc(NC(=O)C(c2ccccc2)S(=O)(=O)O)cc1Br` (configuration not stated), for which the IC50 in experiment [1], in experiment [2], in experiment [3], in [4], in experiment [7] and in experiment [5] was over 200 µM each time. Moreover, the IC50 in experiment [6], in [8] and in experiment [9] was over 200 µM in each case.
Consider `O=C(Nc1ccc(-n2ccnc2)cc1)C(c1ccccc1)S(=O)(=O)O` (configuration not stated), for which the IC50 in experiment [1], in [2], in [3], in experiment [4], in experiment [7] and in [5] was over 100 µM throughout. Further, the IC50 in experiment [6], in [8] and in [9] was over 100 µM throughout.
